Test results reported in PubChem BioAssay AID179 (DTP/NCI, 2004).
Calls of active or inactive are those of the source.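 Rule for the calls: active = compounds giving half or more protection of infected cells from virus-caused growth loss, again on retest; inactive = the rest.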

Test system: CEM cells HIV-1 protection, formazan growth assay
Assay: NCI AIDS Antiviral Assay
Conditions: for IC50: measured here: growth of uninfected CEM cells
Procedure: The ability of compounds to protect human CEM cells from HIV-1 infection is measured as a screen for new compounds capable of inhibiting the HIV virus. Five concentrations of drug were tested on uninfected and infected cells and cell growth was measured using a soluble formazan assay. […] Compounds that provided at least 50% protection were retested. Compounds that provided at least 50% protection on retest were listed as moderately active. Compounds that reproducibly provided 100% protection were listed as confirmed active. […] Note that the inability to provide protection could be due to toxicity.

## CCOC(=O)c1c(-c2ccccc2)c(C)cn1C
  EC50: > 200 µM
  IC50: 120 µM

## O=C(O)/C=C/c1ccc(/C=C/C(=O)O)cc1
  EC50: > 200 µM
  IC50: > 200 µM

## CCCCOC(=O)C1CC2OC2CC1C(=O)OCCCCOC(=O)C1CC2OC2CC1C(=O)OCCCC (stereo not drawn)
  EC50: > 200 µM
  IC50: 21.9 µM

## O=C1C(=O)N(C(=O)c2ccc(Cl)c(Cl)c2)c2ccccc21
  outcome: inactive

## c1ccc(Nc2nnc(-c3nsc4ccccc34)o2)cc1
  EC50: > 24.5 µM
  IC50: > 24.5 µM

## O=C(O)CSc1ccc2c3c(cccc13)C(=O)c1ccccc1-2
  EC50: > 200 µM
  IC50: 3.09 µM

## COc1ccc(/C=C/C(CC(NO)c2ccc(OC)cc2)=N\O)cc1 (stereo not drawn)
  EC50: > 200 µM
  IC50: > 100 µM

## CCCCN1C(=O)N(c2ccc(OCC)cc2)C2N(CCCC)C1C(C)(C)C2(C)C (stereo not drawn)
  EC50: > 21.9 µM
  IC50: > 21.9 µM

## CNC(=S)NNC(=O)c1c(C)nc2sccn12
  EC50: > 933 µM
  IC50: 575 µM

## O=C1OCc2c1cc1cc3c(cc1c2-c1ccc2c(c1)OCO2)OCO3
  outcome: inactive

## CC(C)CC(NC=O)C(=O)NC(Cc1ccccc1)NC(=O)CNC(=O)C(C)NC(=O)OC(C)(C)C (stereo not drawn)
  EC50: > 200 µM
  IC50: > 200 µM

## CC12c3c4cccc3Oc3cc(N)cc(c31)Oc1cc(N)cc(c12)O4
  EC50: > 200 µM
  IC50: 2.88 µM

## NC(=O)c1n[nH]c(C2OC(CO)C(O)C2O)n1 (stereo not drawn)
  EC50: > 200 µM
  IC50: 170 µM

## CC(C)(C)CC1=CC(=C2C=C(CC(C)(C)C)C(=O)C(CC(C)(C)C)=C2)C=C(CC(C)(C)C)C1=O
  EC50: > 15.5 µM
  IC50: > 15.5 µM

## CC1(C)CC(C2=NCCO2)CC(C)(C)N1
  EC50: > 200 µM
  IC50: > 200 µM

## Cc1cc2c(cc1Cl)SC(NNC(=O)c1ccncc1)=NS2(=O)=O
  EC50: > 200 µM
  IC50: > 200 µM

## Cc1cc(Cl)ccc1N1C(=O)C(=O)C(c2nc3ccccc3s2)/C(=N\NC(=O)c2ccccc2O)C1=O (stereo not drawn)
  EC50: > 25.7 µM
  IC50: > 25.7 µM

## CSc1nc(C)cc(N(C)c2ccccc2)n1
  EC50: > 200 µM
  IC50: 32.4 µM

## COc1ccc(/C=N/NC(=O)c2sc(=S)n(-c3ccccc3)c2N)cc1
  EC50: > 9.77 µM
  IC50: > 9.77 µM

## CC(=Nc1ccccc1C(=O)[O-])c1c([O-])ccc2c(C)cc(=O)oc12.[Ni+2].[OH3+]
  EC50: > 2.51 µM
  IC50: > 2.51 µM

## O=C1NC(=O)C(=Cc2ccccc2[N+](=O)[O-])C(=O)N1
  outcome: inactive

## Cc1ccc(NC(=S)Nc2ccccc2C)nc1
  EC50: > 200 µM
  IC50: 0.776 µM

## O=C(O)C[C@@H]1[C@@H](O)[C@@H](O)CN2C(=O)c3ccccc3[C@H]12
  EC50: > 200 µM
  IC50: > 200 µM

## COc1ccccc1C12OC(=O)C1(C)Oc1ccccc1C2=O (stereo not drawn)
  outcome: inactive

## O=C(O)C1CSC(c2cccs2)N1 (stereo not drawn)
  EC50: > 200 µM
  IC50: > 200 µM

## CC(=O)OC1c2ccccc2C2c3ccccc3C1C2(C)C(Cl)(Cl)Cl (stereo not drawn)
  EC50: > 13.2 µM
  IC50: > 13.2 µM

## O=c1[nH]c2nncn2c2ccccc12
  EC50: > 200 µM
  IC50: > 200 µM

## O=C(CCCCC1CCSS1)N(C(=O)NC1CCCCC1)C1CCCCC1 (stereo not drawn)
  EC50: > 200 µM
  IC50: 10.5 µM

## O=C1c2ccccc2C(=O)c2sc(Nc3ccccc3C(F)(F)F)nc21
  EC50: > 200 µM
  IC50: 11 µM

## COc1cc(OC)c(OC)cc1/C=C\c1ccnc2ccccc12
  EC50: > 30.9 µM
  IC50: 1.48 µM

## O=c1cc(-c2ccccc2)nc(-n2[nH]c3c(c2=O)CCCC3)[nH]1
  EC50: > 50.1 µM
  IC50: 1.29 µM

## COC(=O)C(/C(=N/N)C(=O)Nc1ccc(C)c(C)c1)c1nc2ccc(Cl)cc2[nH]c1=O (stereo not drawn)
  EC50: > 214 µM
  IC50: 135 µM

## O=C(C(Cl)=C(N1CCCCC1)N1CCCCC1)C(Cl)Cl
  EC50: > 200 µM
  IC50: 174 µM

## S=c1nc(-c2ccnc(-c3nc(=S)[nH][nH]3)c2)[nH][nH]1
  EC50: > 25.7 µM
  IC50: > 25.7 µM

## CC(C)(C)OC(=O)NC(Cc1ccc(O)cn1)C(N)=O (stereo not drawn)
  EC50: > 200 µM
  IC50: > 200 µM

## CC(=O)Nc1cc(OCC(=O)O)ccc1S(=O)(=O)c1ccc(OCC(=O)O)cc1NC(C)=O
  EC50: > 200 µM
  IC50: > 200 µM

## Cc1cc(NS(=O)(=O)c2ccc(NC(=O)c3cccc4c(NNc5ccc(S(N)(=O)=O)cc5)c5ccccc5nc34)cc2)no1
  EC50: > 200 µM
  IC50: 37.2 µM

## CC(=O)N=C1N(/C=C2\C(=O)Oc3ccccc3C2=O)C(=O)/C(=C/c2ccco2)N1C
  EC50: > 200 µM
  IC50: 69.2 µM

## O=C(Nc1ccc(C(F)(F)F)cc1)NC(F)(F)F
  EC50: > 200 µM
  IC50: > 200 µM

## C/C(C/C(C)=N\N=C(N)N)=N/N=C(N)N
  EC50: > 200 µM
  IC50: > 200 µM

## COC(=O)Nc1nc2cc(OC)c(OC)cc2c(=O)[nH]1
  EC50: > 200 µM
  IC50: 8.71 µM

## CC(=O)OCc1nnn2c1CCC2
  outcome: inactive

## NC(=O)c1ncn2c1NC(=O)CC2
  outcome: inactive

## Cn1nc(S(N)(=O)=O)s/c1=N/C(N)=S
  EC50: > 200 µM
  IC50: > 200 µM

## O=[N+]([O-])c1ccccc1CS(=O)(=O)c1ccccc1
  outcome: inactive
